Measured values reported in patent US12331040B2 (Karyopharm Therapeutics Inc., priority 2013, dated 2025).
Like-named read-outs stand apart in the source and are kept apart here.

What was measured:
Assay in all cases: MTT cell proliferation assay
Type in all cases: cell-based
MS751 cells = conditions: Homo sapiens, MS751, MS751 cells, approximately 64-72 hours incubation
Description: (§1) The MTT cell proliferation assay was used to study the cytotoxic properties of the compounds. The assay was performed according to the method described by Roche Molecular Biochemicals, with minor modifications. The assay is based on the cleavage of the tetrazolium salt, MTT, in the presence of an electron-coupling reagent. The water-insoluble formazan salt produced must be solubilized in an additional step. Cells grown in a 96-well tissue culture plate were incubated with the MTT solution for approximately 4 hours. After this incubation period, a water-insoluble formazan dye formed. After solubilization, the formazan dye was quantitated using a scanning multi-well spectrophotometer (ELISA reader). […] The cells were seeded at 5,000-10,000 cells in each well of 96-well plate in 100 μL of fresh culture medium and were allowed to attach overnight. The stock solutions of the compounds were diluted in 100 μL cell culture medium to obtain eight concentrations of each test compound, ranging from 1 nM to 30 μM. […] All optical densities were measured at 490 nm using a Vmax Kinetic Microplate Reader (Molecular Devices). In most cases, the assay was performed in duplicate and the results were presented as a mean percent inhibition to the negative control±SE. The following formula was used to calculate the percent of inhibition: Inhibition (%)=(1−(ODo/OD))×100.
(§2) The compounds were tested against MS751, Z138 and 3T3 cells. The MS751 cell line is derived from a metastasis to lymph node of human cervix from a patient diagnosed with squamous cell carcinoma of the cervix. The Z138 cell line is a mature B-cell acute lymphoblastic leukemia cell line derived from a patient with chronic lymphocytic leukemia. 3T3 cells are standard fibroblast cells; they were originally isolated from Swiss mouse embryo tissue.

Z138 cells = conditions: Homo sapiens, Z-138, Z138 cells, approximately 64-72 hours incubation
Description: as §1, §2

3T3 cells = conditions: Mus musculus, NIH3T3, approximately 64-72 hours incubation
Description: as §1, §2

[1] = read-out: MTT Assay IC50, MS-751
[2] = read-out: MTT Assay IC50, Z-138
[3] = read-out: MTT Assay IC50 MS-751

SMILES | IC50 (MS751 cells; [1]) [µM] | IC50 (Z138 cells; [2]) [µM] | IC50 (3T3 cells; read-out: MTT Assay IC50, 3T3) [µM] | IC50 (MS751 cells; [3]) [µM] | IC50 (Z138 cells; read-out: MTT Assay IC50 Z-138) [µM] | IC50 (3T3 cells; read-out: MTT Assay IC50 3T3) [µM]
Nc1ccc(/C=C/C(=O)NCc2cc3c(Cl)cc(-c4ccc(C(=O)N5CCC(F)(F)CC5)cc4)cc3o2)cn1 [Compound 714] | 0.1 to 5 | 0.1 to 5 | > 10 |  |  | 
Nc1ccc(/C=C/C(=O)NCc2cc3cc(-c4ccc(C(=O)N5CCC(F)(F)CC5)cn4)cc(Cl)c3o2)cn1 [Compound 591, (E)-3-(6-aminopyridin-3-yl)-N-((7-chloro-5-(5-(4,4-difluoropiperidine-1-carbonyl)pyridin-2-yl)benzofuran-2-yl)methyl)acrylamide] |  |  |  | 0.1 to 5 | 0.1 to 5 | > 10
Nc1ccc(/C=C/C(=O)NCc2cc3cc(-c4ccc(C(=O)N5CCC(O)(C(F)(F)F)C5)cc4)cc(C(F)(F)F)c3o2)cn1 (stereo not drawn) [Compound 606, (E)-3-(6-aminopyridin-3-yl)-N-((5-(4-(3-hydroxy-3-(trifluoromethyl)pyrrolidine-1-carbonyl)phenyl)-7-(trifluoromethyl)benzofuran-2-yl)methyl)acrylamide] |  |  |  | 0.1 to 5 | 0.1 to 5 | > 10
Nc1ccc(/C=C/C(=O)NCc2cc3cc(-c4ccc(C(=O)N5CCC(F)(F)CC5)cc4F)cc(-c4ccc(Cl)cc4)c3o2)cn1 [Compound 750, (E)-3-(6-aminopyridin-3-yl)-N-((7-(4-chlorophenyl)-5-(4-(4,4-difluoropiperidine-1-carbonyl)-2-fluorophenyl)benzofuran-2-yl)methyl)acrylamide] | 0.1 to 5 | 0.1 to 5 | > 10 |  |  | 
Nc1ccc(/C=C/C(=O)NCc2cc3cc(-c4ccc(C(=O)N5CCC(F)(F)CC5)cn4)c(C(F)(F)F)cc3o2)cn1 [Compound 664, (E)-3-(6-aminopyridin-3-yl)-N-((5-(5-(4,4-difluoropiperidine-1-carbonyl)pyridin-2-yl)-6-(trifluoromethyl)benzofuran-2-yl)methyl)acrylamide] | > 10 | > 10 | > 10 |  |  | 
CN(C)c1ccc(-c2cc(Cl)c3oc(CNC(=O)/C=C/c4ccc(N)nc4)cc3c2)nc1 [Compound 646, (E)-3-(6-aminopyridin-3-yl)-N-((7-chloro-5-(5-(dimethylamino)pyridin-2-yl)benzofuran-2-yl)methyl)acrylamide] |  |  |  | > 10 | > 10 | > 10
Nc1ccc(/C=C/C(=O)NCc2cc3cc(-c4ncc(C(=O)N5CCC(F)(F)C5)cn4)cc(C(F)(F)F)c3o2)cn1 [Compound 653, (E)-3-(6-aminopyridin-3-yl)-N-((5-(5-(3,3-difluoropyrrolidine-1-carbonyl)pyrimidin-2-yl)-7-(trifluoromethyl)benzofuran-2-yl)methyl)acrylamide] |  |  |  | 0.1 to 5 | 0.1 to 5 | > 10
O=C(/C=C/c1cccnc1)NCc1cc2cc(-c3ccc(C(=O)N4CCC(F)(F)CC4)cn3)cc(OC(F)(F)F)c2o1 [Compound 752, (E)-N-((5-(5-(4,4-difluoropiperidine-1-carbonyl)pyridin-2-yl)-7-(trifluoromethoxy)benzofuran-2-yl)methyl)-3-(pyridin-3-yl)acrylamide] | < 0.1 | < 0.1 | < 0.1 |  |  | 
CN1CCN(C(=O)c2ccc(-c3cc(C(F)(F)F)c4oc(CNC(=O)/C=C/c5ccc(N)nc5)cc4c3)cc2)CC1 [Compound 561, (E)-3-(6-aminopyridin-3-yl)-N-((5-(4-(4-methylpiperazine-1-carbonyl)phenyl)-7-(trifluoromethyl)benzofuran-2-yl)methyl)acrylamide] |  |  |  | < 0.1 | < 0.1 | 5 to 10
Nc1ccc(/C=C/C(=O)NCc2cc3cc(-c4ccc(C(=O)N5CCC(F)(F)CC5)cc4F)cc(-c4ccc(F)c(Cl)c4)c3o2)cn1 [Compound 757, (E)-3-(6-aminopyridin-3-yl)-N-((7-(3-chloro-4-fluorophenyl)-5-(4-(4,4-difluoropiperidine-1-carbonyl)-2-fluorophenyl)benzofuran-2-yl)methyl)acrylamide] | < 0.1 | < 0.1 | > 10 |  |  | 
Nc1ccc(/C=C/C(=O)NCc2cc3cc(-c4ccc(C(=O)N5CCC(C(F)(F)F)CC5)cc4)cc(C(F)(F)F)c3o2)cn1 [Compound 605, (E)-3-(6-aminopyridin-3-yl)-N-((7-(trifluoromethyl)-5-(4-(4-(trifluoromethyl)piperidine-1-carbonyl)phenyl)benzofuran-2-yl)methyl)acrylamide] |  |  |  | 0.1 to 5 | 0.1 to 5 | > 10
Nc1ccc(/C=C/C(=O)NCc2cc3cc(-c4ccc(C(=O)N5CC6(CCO6)C5)cn4)cc(C(F)(F)F)c3o2)cn1 [Compound 634, (E)-N-((5-(5-(1-oxa-6-azaspiro[3.3]heptane-6-carbonyl)pyridin-2-yl)-7-(trifluoromethyl)benzofuran-2-yl)methyl)-3-(6-aminopyridin-3-yl)acrylamide] |  |  |  | 0.1 to 5 | 0.1 to 5 | > 10
Cc1noc(C)c1/C=C/C(=O)NCc1cc2cc(-c3ccc(C(=O)N4CCOCC4)cc3)cc(Cl)c2o1 [Compound 541, (E)-N-((7-Chloro-5-(4-(morpholine-4-carbonyl)phenyl)benzofuran-2-yl)methyl)-3-(3,5-dimethylisoxazol-4-yl)acrylamide] |  |  |  | 0.1 to 5 | 0.1 to 5 | > 10
Nc1ccc(/C=C/C(=O)NCc2cc3cc(-c4ccc(F)c(C(=O)N5CCOCC5)c4)cc(Cl)c3o2)cn1 [Compound 562, (E)-3-(6-aminopyridin-3-yl)-N-((7-chloro-5-(4-fluoro-3-(morpholine-4-carbonyl)phenyl)benzofuran-2-yl)methyl)acrylamide] |  |  |  | < 0.1 | < 0.1 | > 10
CC1(C)CN(C(=O)c2ccc(-c3cc(C(F)(F)F)c4oc(CNC(=O)/C=C/c5ccc(N)nc5)cc4c3)cc2)CCO1 [Compound 530, (E)-3-(6-aminopyridin-3-yl)-N-((5-(4-(2,2-dimethylmorpholine-4-carbonyl)phenyl)-7-(trifluoromethyl)benzofuran-2-yl)methyl)acrylamide] |  |  |  | 0.1 to 5 | 0.1 to 5 | > 10
O=C(/C=C/c1ccc(C(F)(F)F)nc1)NCc1cc2cc(-c3ccc(C(=O)N4CCOCC4)cc3)cc(Cl)c2o1 [Compound 536, (E)-N-((7-Chloro-5-(4-(morpholine-4-carbonyl)phenyl)benzofuran-2-yl)methyl)-3-(6-(trifluoromethyl)pyridin-3-yl)acrylamide] |  |  |  | > 10 | 5 to 10 | > 10
Nc1ccc(/C=C/C(=O)NCc2cc3cc(-c4ncc(C(=O)N5CCC(F)(F)CC5)cc4F)cc(-c4ccc(F)cc4)c3o2)cn1 [Compound 764, (E)-3-(6-aminopyridin-3-yl)-N-((5-(5-(4,4-difluoropiperidine-1-carbonyl)-3-fluoropyridin-2-yl)-7-(4-fluorophenyl)benzofuran-2-yl)methyl)acrylamide] | < 0.1 | < 0.1 | 0.1 to 5 |  |  | 
Nc1ccc(/C=C/C(=O)NCCc2cc3cc(-c4ccc(C(=O)N5CCC(F)(F)CC5)cn4)cc(C(F)(F)F)c3o2)cn1 [Compound 690, (E)-3-(6-aminopyridin-3-yl)-N-(2-(5-(5-(4,4-difluoropiperidine-1-carbonyl)pyridin-2-yl)-7-(trifluoromethyl)benzofuran-2-yl)ethyl)acrylamide] | < 0.1 | < 0.1 | 0.1 to 5 |  |  | 
Nc1ccc(/C=C/C(=O)NCc2cc3cc(-c4ccc(C(=O)N5CCCCC5)cc4)cc(C(F)(F)F)c3o2)cn1 [Compound 595, (E)-3-(6-aminopyridin-3-yl)-N-((5-(4-(piperidine-1-carbonyl)phenyl)-7-(trifluoromethyl)benzofuran-2-yl)methyl)acrylamide] |  |  |  | 0.1 to 5 | 0.1 to 5 | > 10
Nc1cc2ccc(/C=C/C(=O)NCc3cc4cc(-c5ccc(C(=O)N6CCC(F)(F)CC6)cn5)cc(C(F)(F)F)c4o3)cc2cn1 [Compound 670, (E)-3-(3-aminoisoquinolin-7-yl)-N-((5-(5-(4,4-difluoropiperidine-1-carbonyl)pyridin-2-yl)-7-(trifluoromethyl)benzofuran-2-yl)methyl)acrylamide] | > 10 | > 10 | > 10 |  |  | 
Nc1ccc(/C=C/C(=O)NCc2cc3cc(-c4ccc(Oc5ccc(F)cc5)cc4)cc(-c4ccc(F)cc4)c3o2)cn1 [Compound 701, (E)-3-(6-aminopyridin-3-yl)-N-((5-(4-(4-fluorophenoxy)phenyl)-7-(4-fluorophenyl)benzofuran-2-yl)methyl)acrylamide] | 0.1 to 5 | 0.1 to 5 | > 10 |  |  | 
